Data from PubChem BioAssay (NCI).
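Cells were grown in 96-well plates and exposed to each compound for 48 hours at five concentrations; endpoints were interpolated linearly between bracketing concentrations, or set to the highest concentration if not reached. TGI: concentration producing complete growth inhibition.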

Experiments:
Assay in all cases: NCI anticancer screen, dose series, 48 h
ACHN renal = test system: ACHN renal
EKVX NSCLC = test system: EKVX NSCLC
HOP-62 NSCLC = test system: HOP-62 NSCLC
K-562 leukemia = test system: K-562 leukemia
MALME-3M melanoma = test system: MALME-3M melanoma
MCF7 breast = test system: MCF7 breast
MDA-MB-435 = test system: MDA-MB-435
NCI-H226 lung = test system: NCI-H226 lung
OVCAR-3 ovarian = test system: OVCAR-3 ovarian
OVCAR-4 ovarian = test system: OVCAR-4 ovarian
RXF 393 renal = test system: RXF 393 renal
SK-MEL-28 melanoma = test system: SK-MEL-28 melanoma
SK-MEL-5 melanoma = test system: SK-MEL-5 melanoma
SK-OV-3 ovarian = test system: SK-OV-3 ovarian
SNB-75 CNS = test system: SNB-75 CNS
SR leukemia = test system: SR leukemia
T-47D breast = test system: T-47D breast
UO-31 renal = test system: UO-31 renal
KM12 colon = test system: KM12 colon

Row | Structure (SMILES) | TGI (ACHN renal) [µM] | TGI (EKVX NSCLC) [µM] | TGI (HOP-62 NSCLC) [µM] | TGI (K-562 leukemia) [µM] | TGI (MALME-3M melanoma) [µM] | TGI (MCF7 breast) [µM] | TGI (MDA-MB-435) [µM] | TGI (NCI-H226 lung) [µM] | TGI (OVCAR-3 ovarian) [µM] | TGI (OVCAR-4 ovarian) [µM] | TGI (RXF 393 renal) [µM] | TGI (SK-MEL-28 melanoma) [µM] | TGI (SK-MEL-5 melanoma) [µM] | TGI (SK-OV-3 ovarian) [µM] | TGI (SNB-75 CNS) [µM] | TGI (SR leukemia) [µM] | TGI (T-47D breast) [µM] | TGI (UO-31 renal) [µM] | TGI (KM12 colon) [µM]
1 | O=C1NCN(c2ccccc2)C12CCN(CC1COc3ccccc3O1)CC2 (stereo not drawn) | > 100 | 98.2 | 52.8 | > 100 | > 100 | > 100 | > 100 | > 100 | > 100 | > 100 | 96.5 | > 100 | > 100 | > 100 | 71.4 | > 100 | > 100 | > 100 | 
2 | COc1ccc(-c2nc(Nc3ccccc3)sc2Cc2sc(Nc3ccccc3)nc2-c2ccc(OC)cc2)cc1 | > 100 | > 100 | > 100 | > 100 | > 100 | > 100 | > 100 | > 100 | > 100 | > 100 | 26.8 | > 100 | > 100 | > 100 | > 100 | > 100 | > 100 | > 100 | > 100
3 | CCOP(=O)(O)C(Nc1ccc(N=Nc2ccccc2)cc1)c1cccc(C(Nc2ccc(N=Nc3ccccc3)cc2)P(=O)(O)OCC)c1 (stereo not drawn) | > 100 | > 100 | 58.5 | 40 | > 100 | > 100 | > 100 | > 100 | > 100 | > 100 | > 100 | 93.7 | > 100 | > 100 | > 100 | > 100 | > 100 | > 100 | > 100
4 | O=C1Cc2cn[nH]c2-c2ccccc2N1 | > 55.7 | 95.4 | > 100 | 56.6 | > 69.7 | > 100 | 59.7 | > 100 | 37.5 | > 75.1 | 72.3 | > 100 | > 59.7 | > 100 | > 100 | 71.8 | > 100 | > 100 | > 67.3
5 | CCCCCCCCCCCCCCCCNC(=O)/C(=C\c1ccc(Cl)c(Cl)c1)NC(=O)c1ccccc1 | > 100 | > 100 | 51.6 | 64.3 | > 100 | 59.1 | > 100 | 56.8 | > 100 | 84.4 | 31.8 | > 100 | > 100 | > 100 | 33.1 | 90.7 | > 100 | > 100 | > 100
6 | COC(=O)C(=O)Nc1cc2c3c(c1)Oc1cccc4c1C3(C)c1c(cccc1O2)O4 | > 100 | > 100 | > 100 | > 100 | > 100 | > 100 | > 100 | 44.8 | > 100 | > 100 | 56.9 | > 100 | > 100 | > 100 | > 100 | > 100 | > 100 | > 100 | > 100
7 | CC(C)(C)OC(=O)N1CCCC1C(=O)NC(c1ccccc1)c1ccccc1 (stereo not drawn) | > 100 | > 100 | > 100 | > 100 | > 100 | > 100 | > 100 | > 100 | > 100 | > 100 | > 100 | > 100 | > 100 | > 100 | > 100 | > 100 | > 100 | > 100 | > 100
8 | Cc1ccc(S(=O)(=O)N2CCNCCN(S(=O)(=O)c3ccc(C)cc3)CCNCC2)cc1 | 89.1 | > 100 | 34.8 | 31.4 | 33.1 | 53.8 | 36.4 | 44 | 27.7 | 82.4 | 14.7 | 37.6 | 29.9 | 41.1 | 42.8 | 34.1 | 31.7 | 62.6 | 42.1
9 | O=C(Nc1ccccc1)OCCN=C1c2ccccc2CCc2ccccc21 | 70.1 | > 100 | 49.4 | 60.9 | 57.9 | 57.8 | 43.6 | 55 | 44.3 | > 100 | 50.2 | 28.7 | 27.3 | 92.3 | > 100 | 38.9 | 45 | 43.7 | 33.1
10 | CC(C)OP(=O)(OC(C)C)C(C)(C)O | > 100 | > 100 | > 100 | > 100 | > 100 | > 100 | > 100 | > 100 | > 100 | > 100 | > 100 | > 100 | > 100 | > 100 | > 100 | > 100 | > 100 | > 100 | > 100
11 | O=[N+]([O-])c1cccc2nccc(NCCN3CCOCC3)c12 | > 59.4 | > 53.8 | 35.6 | > 56.7 | 18.7 | 25.5 | 81.8 | 17 | 25.2 | 25.6 | 31.9 | 46.1 | 22.3 | > 100 | 47.2 | > 31.4 | > 100 | > 100 | 40
12 | COC(=O)c1ccc2c(c1)CC1(C2)Cc2ccccc2C1=O (stereo not drawn) | > 100 | 88.1 | > 100 | > 100 | 67.1 | 52.5 | 58.5 | 52.7 | > 100 | > 100 | > 100 | 38.7 | 32.6 | > 100 | 67.3 | 65.7 | > 100 | > 100 | 
13 | O=C(NCCNCCNC(=O)c1cc(-c2ccccc2)nc2ccccc12)c1cc(-c2ccccc2)nc2ccccc12 | 4.85 | 11.7 | 3.26 | 3.99 | 3.33 | 3.96 | 3.34 | 9.16 | 5.73 | 5.98 | 3.56 | 3.25 | 3.18 | 17.7 | 3.99 | 5.37 | 7.62 | 6.94 | 4.03
14 | CN(N=O)c1nc2c(C(N)=O)ncn2s1 | > 100 | > 100 | > 100 | > 100 | > 100 | > 100 | > 100 | > 100 | > 100 | > 100 | > 100 | > 100 | > 100 | > 100 | > 100 | > 100 | > 100 | > 100 | > 100
15 | COc1cc2cc(C(=O)N3CC(CCl)c4ccc([N+](C)(C)Cc5ccccc5[N+](=O)[O-])cc43)[nH]c2c(OC)c1OC (stereo not drawn) | > 100 | 21.3 | 18.1 | 12.5 | 3.59 | > 100 | 5.17 | 19.5 | > 24.6 | 12.9 | 2.11 | 11.4 | 3.3 | 30.1 | 24.7 | 4.39 | 12.5 | 5.17 | 10.2
16 | CSc1nc(=O)cnn1C | > 100 | > 100 | > 100 | > 100 | > 100 | > 100 | > 100 | > 100 | > 100 | > 100 | > 100 | > 100 | > 100 | > 100 | > 100 | > 100 | > 100 | > 100 | > 100
17 | CC(C)(C)OC(=O)CCCCCNC(=O)CCCCCNC(=O)CCC(CN(CC(=O)OCc1ccccc1)CC(=O)OCc1ccccc1)N(CC(=O)OCc1ccccc1)CC(=O)OCc1ccccc1 (stereo not drawn) | > 100 | > 100 | > 100 | > 100 | > 100 | > 100 | > 100 | > 100 | > 100 | > 100 | > 100 | > 100 | > 100 | > 100 | 81.9 | > 100 | > 100 | > 100 | > 100
18 | CCOc1ccc(NC(=O)C(=O)Nn2c(N)nnc2N)cc1 | > 100 | > 100 | > 100 | > 100 | > 100 | > 100 | > 100 | > 100 | > 100 | > 100 | > 100 | > 100 | > 100 | > 100 | > 100 | > 100 | > 100 | > 100 | > 100
19 | O=C1NC(N/N=C\c2ccccc2)=N/C1=C/c1ccccc1 | 34.5 | 74.5 | 48.2 | > 100 | > 100 | > 100 | > 100 | 50.2 | 94.9 | 55.9 | 73.1 | > 100 | > 100 | > 100 | 63.2 | 53.9 | > 100 | > 100 | > 100
20 | C=CCN1CCC(c2cc(C(=O)OCC)[nH]c2-c2cc(C)no2)C1=O (stereo not drawn) |  | > 100 | > 100 | > 100 | > 100 | > 100 | > 100 | > 100 | > 100 | > 100 | > 100 | > 100 | > 100 | > 100 | > 100 | > 100 | > 100 | > 100 | > 100
21 | O=C1NC2(CCNCC2)Oc2ccccc21 | > 100 | > 100 | > 100 | > 100 | > 100 | > 100 | > 100 | > 100 | > 100 | > 100 | > 100 | > 100 | > 100 | > 100 | > 100 | > 100 | > 100 | > 100 | > 100
22 | O=c1[nH][nH]c(=O)c2c1ccc1oc3ccccc3c12 | > 100 | > 100 | > 100 | > 100 | > 100 | > 100 | > 100 | > 100 | > 100 | > 100 | > 100 | > 100 | > 100 | > 100 | > 100 | > 100 | > 100 | > 100 | > 100
23 | Cc1[nH]c(-c2ccccc2)c2nc(N(C)C)oc(=O)c12 | > 100 | > 100 | > 100 | > 100 | > 100 | > 100 | > 100 | > 100 |  | > 100 | > 100 | > 100 | > 100 | > 100 | > 100 | > 100 | > 100 | > 100 | > 100
